According to EP1452605A1, “Method for determining antiviral activity” (Universiteit Utrecht Holding B.V., priority 2003, dated 2004):

How the values were obtained:
HIV-1HXB2 [1] = test: HIV-1 infection of PBL, p24-core antigen ELISA; assay type: cell-based; settings: Human immunodeficiency virus 1, 168 h; PBL infected with HIV-1HXB2, p24 antigen after 7 days
Method: (§1) To correct for the input virus, an extra control consisting of medium containing the same amount of input virus as added to the cells was included in the experiment. The amount of p24 in this control was subsequently subtracted from the p24 values of the samples in order to obtain the exact amount of p24 produced by the cells. p24-core antigen quantification by ELISA After 2 or 7 days incubation, samples of the supernatants were collected, inactivated by addition of Empigen (Calbiochem, La Jolla, CA, USA) and by heat inactivation at 56°C for 30 min. p24-core antigen concentration was determined by an enzyme linked immunoabsorbent assay (ELISA) (AMPAK™, DAKO, Cambridgeshire, UK) as described previously ^18,19. The optical density values were converted into p24 concentration (ng/ml) with the use of a calibration curve made by serial dilutions of recombinant p24 protein (NIBSC, UK) that was submitted to the same treatment as the samples.

in vitro = settings: human, pbmc
HIV-1Ba-L = test: HIV-1 infection of PBMC, p24-core antigen ELISA; assay type: cell-based
Method: as §1
(§2) To correct for the input virus, an extra control consisting of medium containing the same amount of input virus as added to the cells was included in the experiment. The amount of p24 in this control was subsequently subtracted from the p24 values of the samples in order to obtain the exact amount of p24 produced by the cells.
(§3) After 7 days incubation, samples of the supernatants were collected, inactivated by addition of Empigen (Calbiochem, La Jolla, CA, USA) and by heat inactivation at 56°C for 30 min. p24-core antigen concentration was determined by an ELISA (AMPAK™, DAKO, Cambridgeshire, UK) as described previously ^39,40. The optical density values were converted into p24 concentration (ng/ml) with the use of a calibration curve made by serial dilutions of recombinant p24 protein (NIBSC, UK) that was submitted to the same treatment as the samples.
as §2
as §3, with “enzyme linked immunoabsorbent assay (ELISA)” for “ELISA”, “15,16.” for “^39,40.”

HIV-1HXB2 [2] = test: Reverse transcription assay in PBMC: (-) strong stop and gag DNA by real-time Taqman PCR; assay type: cell-based; settings: 10h after infection
Method: PBMC infection with HIV-1Ba-L or HIV-1HXB2 for real-time Taqman PCR The ability of HIV-1Ba-L to enter the cells in the presence of APHS was tested using DS as positive control (entry assay). The amount of HIV-1HXB2 reverse transcription products in the presence of APHS was also tested, using AZT as positive control (reverse transcription assay). Before infection, PHA-stimulated PBMC from the PBMC batch were pre-incubated with different concentrations of APHS, DS or AZT for 24 h. Afterwards, cells were washed and 1 × 10^6 PBMC were incubated for 40 min with HIV-1Ba-L or HIV-1HXB2 at an M.O.I. of 0.0025 and with appropriate concentrations of APHS, AZT, DS or medium in the presence of 1/20 concentrated M buffer (Roche) and 4U/ml DNase (Roche) to digest possible contaminating viral DNA associated with the virions. Afterwards PBMC were washed and resuspended in medium with or without compounds. Cells were treated with 1 mg/ml Pronase (Roche) to remove virus particles bound to the cells. […] At different time points, 1.0 × 10^6 cells were added to 900 µl Nuclisens lysis buffer (Organon Teknika, Boxtel, The Netherlands) containing 40 µl silica to bind total nucleic acids (Nuclisens isolation kit). For the entry assay, samples were collected 2h after the start of the infection and for the reverse transcription assays samples were collected 2, 7 and 10h after the start of the infection.
HIV RNA and DNA were extracted from samples of infected cells according to a method described before ^23. Briefly, after 10 min of mixing the silica and lysis buffer, tubes were shortly centrifuged at 13,000 rpm and supernatant was discarded. Free non-nucleic acid components were removed by washing the silica particles twice with Nuclisens washing buffer, twice with 70 % ethanol and once with acetone. The silica pellet was dried for 10 min at 56 °C. Total nucleic acids were eluted by resuspending the pellet in 100 µl nuclease-free water. After mixing the tubes for 10 min at 56 °C, tubes were shortly centrifuged and the supernatant was transferred to a new tube and stored at -20 °C.
Real-time Taqman PCR is based on cleavage of a probe, hybridized to the target sequence by 5'-3' nuclease activity of Taq DNA polymerase during amplification, as described previously ^24. Briefly, target sequence-specific forward and reverse primers prime the amplification reaction. The probe contains a reporter dye at the 5' end and a quencher dye at the 3' end. When both dyes are attached to the probe, reporter dye emission is quenched. The probe is displaced from the target during each polymeration cycle. Once separated from the quencher, the reporter dye emits its characteristic fluorescence, which can then be measured. The amount of fluorescence measured is proportional to the amount of PCR product.
HIV-1 gag cDNA and HIV-1 (-) strong stop and gag DNA were amplified and quantified by real-time Taqman PCR as described elsewhere ^25. Sets of primers/probes were designed according to a previous study by Zack and colleagues ^26. To quantify the amount of gag RNA in the samples, a cDNA standard curve was prepared from five-fold dilutions of extracted RNA from an HXB2 viral batch, of which the RNA amount was previously determined. To quantify (-) strong stop and gag DNA in the samples, a DNA standard curve was prepared from five-fold dilutions of DNA extracted from U1 cells, which contain two copies of the HIV-1HXB2 genome per cell. Albumin was also quantified and used for normalization of all samples.

4602 = test: Drug susceptibility assay (cell-killing MTT assay) in MT-2 cells; settings: Human immunodeficiency virus 1, MT2, 120 h
Method: (§4) The cells were maintained at 37°C, 5% CO2. One day prior to the experiments, the cells were passaged 1:1 in a concentration of 1 × 10^6 cells/ml.
(§5) The genes that contain the drug resistance mutations are excised from the clinical isolates and cloned into the genetic background of HXB2. Thus all tested HIV-1 strains have the same genetic background. […] This strain contains an insertion of two a.a. between codons 68 and 69 of RT as well as an a.a. change at codon 67.
(§6) After 5 days of incubation a cellular viability assay was performed as described above. In this case, the amount of formazan reflects the number of cells protected by the drug against killing by the virus and is used as a read out for drug susceptibility.

41+215Y = test: as above; settings: AZT-resistant strain 41+215Y, 5 days
Method: as §4, §5, §6

`CCCCC#CCSc1ccccc1OC(C)=O` [APHS, o-(acetoxyphenyl)hept-2-ynyl sulfide] gave an IC50 (HIV-1HXB2 [1]) of 12 µM, a CC50 at 168 h (in vitro) of 105 µM and an IC50 (HIV-1Ba-L; Human immunodeficiency virus 1, 168 h, PBMC infected with HIV-1Ba-L, p24 antigen after 7 days, read-out: IC50) of 6 µM. For the same compound, the inhibition at 30 µM (HIV-1Ba-L; Human immunodeficiency virus 1, 30 µM APHS, PBMC, read-out: inhibit HIV-1Ba-L replication) was 80%, the “gag cDNA levels versus untreated PBMC” value (HIV-1HXB2 [2]; 10 µM APHS) was “no significant differences” and the “(-) strong stop DNA copy numbers versus untreated PBMC” value (HIV-1HXB2 [2]; 10 or 30 µM APHS, 5 or 1000 nM AZT) was “did not show a significant decrease”. For the same compound, the inhibition at 30 µM (HIV-1HXB2 [2]; Human immunodeficiency virus 1, 30 µM APHS, PBMC, read-out: inhibited gag production) was 60%, the IC50 4602 was 5 µM and the IC50 (41+215Y) was 2.1 ± 1 µM. For the same compound, the IC50 (41+215Y; Human immunodeficiency virus 1, MT2, 120 h) was 2 µM.
